Results as given in ChEMBL document CHEMBL1201862, “PubChem BioAssay data set” (2004).
The source made the active and inactive calls.

How the values were obtained:
[1] = molecular target: Tyrosine-protein kinase JAK2 (Homo sapiens, UniProt O60674); format: functional;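 further: JAK2 tested as one member of a kinase panel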
[2] = molecular target: T1, Serine/threonine-protein kinase TBK1 (Homo sapiens, UniProt Q9UHD2); test: Navigating the Kinome. Panel member name: TBK1; format: functional
T1 sequence (Q9UHD2 whole entry): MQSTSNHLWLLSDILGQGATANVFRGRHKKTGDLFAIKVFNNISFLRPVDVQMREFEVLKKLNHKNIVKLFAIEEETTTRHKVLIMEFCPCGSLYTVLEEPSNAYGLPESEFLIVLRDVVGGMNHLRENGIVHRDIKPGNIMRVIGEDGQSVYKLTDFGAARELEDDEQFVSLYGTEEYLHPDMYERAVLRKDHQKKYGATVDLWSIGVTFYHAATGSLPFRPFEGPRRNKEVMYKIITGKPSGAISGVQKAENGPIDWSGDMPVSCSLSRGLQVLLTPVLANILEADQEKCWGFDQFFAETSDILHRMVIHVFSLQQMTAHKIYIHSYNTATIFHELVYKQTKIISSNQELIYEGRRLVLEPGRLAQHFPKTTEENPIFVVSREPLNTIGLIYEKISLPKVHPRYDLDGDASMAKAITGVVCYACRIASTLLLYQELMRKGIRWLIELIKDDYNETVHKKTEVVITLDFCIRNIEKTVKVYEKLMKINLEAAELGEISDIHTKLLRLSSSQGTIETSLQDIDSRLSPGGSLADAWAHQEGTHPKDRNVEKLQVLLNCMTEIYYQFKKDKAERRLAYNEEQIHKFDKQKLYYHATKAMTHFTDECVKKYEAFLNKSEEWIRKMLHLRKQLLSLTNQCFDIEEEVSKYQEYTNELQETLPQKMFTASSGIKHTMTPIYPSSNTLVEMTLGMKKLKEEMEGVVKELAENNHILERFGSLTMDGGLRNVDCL

[3] = molecular target: Tyrosine-protein kinase BTK (Homo sapiens, UniProt Q06187); format: functional
[4] = molecular target: High affinity nerve growth factor receptor (Homo sapiens, UniProt P04629); format: functional;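 further: NTRK1 tested as one member of a kinome-wide profiling panel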
Activated CDC42 kinase 1 = Activated CDC42 kinase 1 (Homo sapiens, UniProt Q07912); test: Navigating the Kinome. Panel member name: ACK1; format: functional
[5] = molecular target: T2, Receptor-type tyrosine-protein kinase FLT3 (Homo sapiens, UniProt P36888); format: functional;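 further: FLT3 was tested as one member of a kinome-wide kinase panel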
T2 sequence (P36888 whole entry): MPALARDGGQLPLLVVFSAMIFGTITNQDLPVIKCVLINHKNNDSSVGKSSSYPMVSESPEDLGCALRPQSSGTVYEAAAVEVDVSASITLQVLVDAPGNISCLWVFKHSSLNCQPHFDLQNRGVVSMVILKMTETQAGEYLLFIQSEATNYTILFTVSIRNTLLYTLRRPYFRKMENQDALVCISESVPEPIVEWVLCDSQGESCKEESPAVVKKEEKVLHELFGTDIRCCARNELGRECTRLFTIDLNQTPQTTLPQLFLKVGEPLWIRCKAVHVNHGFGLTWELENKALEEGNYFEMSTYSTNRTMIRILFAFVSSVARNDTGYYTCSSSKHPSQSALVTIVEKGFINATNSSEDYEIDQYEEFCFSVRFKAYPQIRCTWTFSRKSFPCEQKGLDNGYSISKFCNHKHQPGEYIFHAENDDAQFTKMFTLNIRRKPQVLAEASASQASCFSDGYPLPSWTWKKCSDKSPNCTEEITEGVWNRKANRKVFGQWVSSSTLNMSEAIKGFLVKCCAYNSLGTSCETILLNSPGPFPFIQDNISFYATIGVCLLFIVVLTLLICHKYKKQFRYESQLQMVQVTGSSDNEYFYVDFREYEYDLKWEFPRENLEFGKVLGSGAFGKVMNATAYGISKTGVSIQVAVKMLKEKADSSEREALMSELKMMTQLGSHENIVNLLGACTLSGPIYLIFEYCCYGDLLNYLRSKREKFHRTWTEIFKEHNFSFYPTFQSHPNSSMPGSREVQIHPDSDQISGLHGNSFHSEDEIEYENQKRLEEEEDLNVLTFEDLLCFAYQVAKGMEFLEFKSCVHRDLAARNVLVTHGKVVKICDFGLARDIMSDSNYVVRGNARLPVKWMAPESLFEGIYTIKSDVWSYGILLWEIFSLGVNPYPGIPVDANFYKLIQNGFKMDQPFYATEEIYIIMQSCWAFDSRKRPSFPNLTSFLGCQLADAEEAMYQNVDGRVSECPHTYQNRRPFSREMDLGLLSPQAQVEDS

[6] = molecular target: Vascular endothelial growth factor receptor 2 (Homo sapiens, UniProt P35968); format: functional
[7] = molecular target: Tyrosine-protein kinase Fyn (Homo sapiens, UniProt P06241); format: functional
[8] = molecular target: Glycogen synthase kinase-3 beta (Homo sapiens, UniProt P49841); format: functional;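 further: value comes from a broad kinome profiling panel, with GSK3B as the panel member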
[9] = molecular target: BDNF/NT-3 growth factors receptor (Homo sapiens, UniProt Q16620); format: functional;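 further: NTRK2 measured as one member of a broad kinome-wide kinase profiling panel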
[10] = molecular target: Mitogen-activated protein kinase kinase kinase kinase 4 (Homo sapiens, UniProt O95819); format: functional
Caspase-9 = Caspase-9 (Homo sapiens, UniProt P55211); test: caspase-9 enzyme inhibition, dose response, selectivity assay for caspase-6 inhibitor project, biochemical, fluorescence, plate reader, cherry-picked samples (AID 743293)

Chain of Tyrosine-protein kinase JAK2 (O60674 whole entry): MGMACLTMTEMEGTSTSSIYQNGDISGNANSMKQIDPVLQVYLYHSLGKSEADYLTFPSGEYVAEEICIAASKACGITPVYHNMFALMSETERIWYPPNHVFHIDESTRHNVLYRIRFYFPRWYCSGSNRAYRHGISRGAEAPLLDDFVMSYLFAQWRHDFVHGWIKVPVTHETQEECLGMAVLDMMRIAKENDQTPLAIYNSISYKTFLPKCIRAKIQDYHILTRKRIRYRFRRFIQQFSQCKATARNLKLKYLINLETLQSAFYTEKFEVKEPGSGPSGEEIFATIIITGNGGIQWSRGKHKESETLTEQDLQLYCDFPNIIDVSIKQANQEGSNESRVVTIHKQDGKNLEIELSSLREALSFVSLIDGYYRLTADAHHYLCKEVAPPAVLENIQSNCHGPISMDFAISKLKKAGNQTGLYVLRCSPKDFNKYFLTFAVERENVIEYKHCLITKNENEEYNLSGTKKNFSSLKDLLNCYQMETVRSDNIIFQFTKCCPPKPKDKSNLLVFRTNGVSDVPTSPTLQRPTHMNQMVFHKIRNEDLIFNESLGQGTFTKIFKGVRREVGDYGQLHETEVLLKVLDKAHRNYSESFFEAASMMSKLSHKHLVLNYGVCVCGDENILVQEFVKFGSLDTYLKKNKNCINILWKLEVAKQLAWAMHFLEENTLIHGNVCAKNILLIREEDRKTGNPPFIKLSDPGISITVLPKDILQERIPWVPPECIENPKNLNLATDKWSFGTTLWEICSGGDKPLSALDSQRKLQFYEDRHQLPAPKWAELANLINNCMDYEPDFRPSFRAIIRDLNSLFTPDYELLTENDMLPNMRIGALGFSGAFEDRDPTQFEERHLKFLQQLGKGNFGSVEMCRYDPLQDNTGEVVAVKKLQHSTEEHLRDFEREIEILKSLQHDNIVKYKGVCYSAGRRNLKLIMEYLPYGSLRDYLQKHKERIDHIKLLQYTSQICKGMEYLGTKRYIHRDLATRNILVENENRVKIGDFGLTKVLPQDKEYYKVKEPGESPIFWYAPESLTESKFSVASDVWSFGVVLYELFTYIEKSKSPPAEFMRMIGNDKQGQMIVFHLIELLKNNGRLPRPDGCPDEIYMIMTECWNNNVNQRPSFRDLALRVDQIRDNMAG
Chain of Glycogen synthase kinase-3 beta (P49841 whole entry): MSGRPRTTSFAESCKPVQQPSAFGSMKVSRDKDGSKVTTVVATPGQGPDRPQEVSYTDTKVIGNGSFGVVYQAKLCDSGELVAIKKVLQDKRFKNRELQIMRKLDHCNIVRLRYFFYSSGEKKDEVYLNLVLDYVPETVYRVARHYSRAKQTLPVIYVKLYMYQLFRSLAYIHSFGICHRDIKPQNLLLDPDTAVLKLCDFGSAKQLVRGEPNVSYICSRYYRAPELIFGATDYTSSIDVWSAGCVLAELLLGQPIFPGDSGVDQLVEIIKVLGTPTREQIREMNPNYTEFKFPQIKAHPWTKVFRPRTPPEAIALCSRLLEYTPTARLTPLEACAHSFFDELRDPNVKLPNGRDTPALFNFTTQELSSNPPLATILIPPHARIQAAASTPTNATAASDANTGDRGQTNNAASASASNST
Chain of High affinity nerve growth factor receptor (P04629 whole entry): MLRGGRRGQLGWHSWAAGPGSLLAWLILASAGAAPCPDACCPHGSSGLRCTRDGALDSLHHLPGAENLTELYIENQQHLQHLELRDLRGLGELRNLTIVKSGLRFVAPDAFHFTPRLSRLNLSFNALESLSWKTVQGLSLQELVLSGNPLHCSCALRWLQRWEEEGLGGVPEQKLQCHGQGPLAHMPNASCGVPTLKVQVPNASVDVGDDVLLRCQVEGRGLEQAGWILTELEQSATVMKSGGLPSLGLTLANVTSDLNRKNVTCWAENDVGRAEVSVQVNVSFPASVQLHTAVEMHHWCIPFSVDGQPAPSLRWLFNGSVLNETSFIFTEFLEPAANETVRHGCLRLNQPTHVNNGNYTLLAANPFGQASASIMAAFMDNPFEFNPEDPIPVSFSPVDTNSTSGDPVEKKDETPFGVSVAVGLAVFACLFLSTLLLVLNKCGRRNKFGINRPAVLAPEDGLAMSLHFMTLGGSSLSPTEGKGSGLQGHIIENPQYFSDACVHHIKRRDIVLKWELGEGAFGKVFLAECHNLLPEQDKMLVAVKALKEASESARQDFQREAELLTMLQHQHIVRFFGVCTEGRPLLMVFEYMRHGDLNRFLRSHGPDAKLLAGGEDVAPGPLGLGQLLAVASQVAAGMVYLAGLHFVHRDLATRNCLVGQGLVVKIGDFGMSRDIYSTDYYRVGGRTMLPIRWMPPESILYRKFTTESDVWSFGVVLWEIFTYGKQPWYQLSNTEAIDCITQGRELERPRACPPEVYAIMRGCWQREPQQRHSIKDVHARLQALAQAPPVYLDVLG
Chain of BDNF/NT-3 growth factors receptor (Q16620 whole entry): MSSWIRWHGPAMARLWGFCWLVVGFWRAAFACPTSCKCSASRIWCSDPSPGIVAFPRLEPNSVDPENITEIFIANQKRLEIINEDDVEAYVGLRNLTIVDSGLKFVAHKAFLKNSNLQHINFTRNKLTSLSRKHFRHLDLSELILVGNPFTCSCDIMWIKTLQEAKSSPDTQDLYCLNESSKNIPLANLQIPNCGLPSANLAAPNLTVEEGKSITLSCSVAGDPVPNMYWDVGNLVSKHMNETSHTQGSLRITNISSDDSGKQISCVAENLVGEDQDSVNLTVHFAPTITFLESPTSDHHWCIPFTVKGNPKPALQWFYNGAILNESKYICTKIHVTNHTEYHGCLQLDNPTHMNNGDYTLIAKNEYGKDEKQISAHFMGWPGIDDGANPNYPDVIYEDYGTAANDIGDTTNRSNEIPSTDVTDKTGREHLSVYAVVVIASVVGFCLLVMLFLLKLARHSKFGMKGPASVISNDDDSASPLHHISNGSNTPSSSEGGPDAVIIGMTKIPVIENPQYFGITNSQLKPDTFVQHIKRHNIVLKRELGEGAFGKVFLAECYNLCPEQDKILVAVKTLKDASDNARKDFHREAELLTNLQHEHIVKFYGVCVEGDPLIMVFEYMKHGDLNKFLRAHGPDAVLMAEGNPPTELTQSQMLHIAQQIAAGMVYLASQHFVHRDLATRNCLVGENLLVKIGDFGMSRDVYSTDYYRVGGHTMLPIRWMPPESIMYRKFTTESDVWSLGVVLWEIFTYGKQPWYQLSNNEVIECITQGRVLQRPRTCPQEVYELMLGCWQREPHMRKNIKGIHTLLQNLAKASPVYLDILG
Chain of Vascular endothelial growth factor receptor 2 (P35968 whole entry): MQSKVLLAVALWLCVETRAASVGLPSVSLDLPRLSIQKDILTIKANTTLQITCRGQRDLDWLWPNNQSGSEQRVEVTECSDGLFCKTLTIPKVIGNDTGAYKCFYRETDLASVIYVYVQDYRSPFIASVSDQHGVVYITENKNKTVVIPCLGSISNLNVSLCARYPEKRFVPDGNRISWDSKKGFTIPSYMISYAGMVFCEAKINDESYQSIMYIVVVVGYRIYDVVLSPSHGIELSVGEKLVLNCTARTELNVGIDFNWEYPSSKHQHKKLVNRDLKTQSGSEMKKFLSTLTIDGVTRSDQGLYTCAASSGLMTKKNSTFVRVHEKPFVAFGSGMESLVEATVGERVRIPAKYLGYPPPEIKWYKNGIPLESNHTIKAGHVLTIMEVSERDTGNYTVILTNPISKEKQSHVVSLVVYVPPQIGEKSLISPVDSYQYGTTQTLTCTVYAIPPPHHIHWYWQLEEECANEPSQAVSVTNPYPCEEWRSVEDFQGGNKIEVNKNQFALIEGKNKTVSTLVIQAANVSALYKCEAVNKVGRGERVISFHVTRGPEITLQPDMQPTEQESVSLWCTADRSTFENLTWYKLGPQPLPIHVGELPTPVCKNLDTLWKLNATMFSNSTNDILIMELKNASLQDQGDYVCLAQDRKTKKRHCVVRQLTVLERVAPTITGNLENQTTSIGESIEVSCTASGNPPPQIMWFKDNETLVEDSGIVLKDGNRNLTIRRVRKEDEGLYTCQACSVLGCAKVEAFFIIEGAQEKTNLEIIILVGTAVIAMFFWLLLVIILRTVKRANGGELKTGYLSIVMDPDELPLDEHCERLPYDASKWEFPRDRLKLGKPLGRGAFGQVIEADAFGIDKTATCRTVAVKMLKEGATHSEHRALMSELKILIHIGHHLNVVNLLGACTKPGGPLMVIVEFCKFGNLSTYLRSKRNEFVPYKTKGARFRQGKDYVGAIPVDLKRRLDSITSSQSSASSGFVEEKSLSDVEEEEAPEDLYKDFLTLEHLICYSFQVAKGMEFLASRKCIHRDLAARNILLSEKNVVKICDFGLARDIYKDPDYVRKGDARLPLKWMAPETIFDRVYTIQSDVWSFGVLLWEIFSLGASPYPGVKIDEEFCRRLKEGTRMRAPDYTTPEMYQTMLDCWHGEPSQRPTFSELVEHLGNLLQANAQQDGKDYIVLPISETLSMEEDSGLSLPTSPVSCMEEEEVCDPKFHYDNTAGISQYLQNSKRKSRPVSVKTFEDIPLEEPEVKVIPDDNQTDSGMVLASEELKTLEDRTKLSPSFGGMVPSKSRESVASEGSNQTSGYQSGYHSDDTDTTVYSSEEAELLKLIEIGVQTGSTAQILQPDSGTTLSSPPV
Chain of Tyrosine-protein kinase Fyn (P06241 whole entry): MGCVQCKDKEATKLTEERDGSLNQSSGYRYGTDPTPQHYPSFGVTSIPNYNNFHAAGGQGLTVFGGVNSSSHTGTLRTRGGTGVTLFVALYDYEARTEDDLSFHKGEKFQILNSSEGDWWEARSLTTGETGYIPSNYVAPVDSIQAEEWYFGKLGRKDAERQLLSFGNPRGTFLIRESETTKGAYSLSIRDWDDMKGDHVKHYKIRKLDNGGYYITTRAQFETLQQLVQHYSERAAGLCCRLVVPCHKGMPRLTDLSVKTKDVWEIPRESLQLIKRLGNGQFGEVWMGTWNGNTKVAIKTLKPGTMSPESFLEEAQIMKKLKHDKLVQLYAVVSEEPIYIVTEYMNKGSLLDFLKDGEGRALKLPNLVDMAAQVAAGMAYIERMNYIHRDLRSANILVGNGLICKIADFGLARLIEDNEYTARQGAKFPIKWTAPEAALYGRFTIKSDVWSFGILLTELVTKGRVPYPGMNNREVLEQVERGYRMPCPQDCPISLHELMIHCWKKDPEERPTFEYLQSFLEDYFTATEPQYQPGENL

Ki [1]	Ki [2]	Ki [3]	Ki [4]	Ki (Activated CDC42 kinase 1)	Ki [5]	Ki [6]	Ki [7]	Ki [8]	Ki [9]	Ki [10]	pKi [1]	pKi [2]	pKi [4]	pKi (Activated CDC42 kinase 1)	pKi [5]	pKi [6]	pKi [8]	pKi [9]	AC50 (Caspase-9)	SMILES
> 2.51 µM (inactive)	> 3.16 µM (inactive)	> 6.31 µM (inactive)	> 3.16 µM (inactive)	> 3.98 µM (inactive)	> 3.16 µM (inactive)	> 2.51 µM (inactive)	> 6.31 µM (inactive)	> 3.98 µM (inactive)	> 3.98 µM (inactive)	> 5.01 µM (inactive)	–	–	–	–	–	–	–	–	–	COc1cccc(CNC(=O)c2cnc(-c3ccncc3)nc2)c1
0.2 µM (active)	1 µM (active)	> 1.26 µM (inactive)	0.398 µM (active)	3.16 µM (active)	0.0126 µM (active)	0.251 µM (active)	> 0.794 µM (inactive)	0.0501 µM (active)	0.398 µM (active)	> 0.00316 µM (inactive)	6.7	6	6.4	5.5	7.9	6.6	7.3	6.4	–	OC1CCC(Nc2nc(Cl)cc(-c3c[nH]c4ncccc34)n2)CC1 (stereo unspecified)
–	–	–	–	–	–	–	–	–	–	–	–	–	–	–	–	–	–	–	27.2 µM (active)	O=C(COC(=O)c1ccc([N+](=O)[O-])s1)Nc1ccc(F)cc1
